As a reminder, the pKa is the negative logarithm of the acid dissociation constant.

The source of these data is US20020177180A1, “pH-indicator based assay for selective enzymes” (ThermoGen, Inc., priority 1998, published 2002).

Test system in one data set: not given
Test: not given
Particulars: previously shown; cited from earlier work.
As for `O=[N+]([O-])c1ccc(O)cc1` [4-nitrophenol], the “pKa upon addition of 10% ethanol” value was 7.17.

Staying with this data set, now noted: reported value; cited from earlier work.
Turning to `O=[N+]([O-])c1ccc(O)cc1` [4-nitrophenol], the pKa is reported as 7.2.

Regarding `O=S(=O)(O)CCCN1CCN(CCO)CC1` [EPPS, N-[2-hydroxylethyl]piperazine-N′-[3-propanesulfonic acid]], the pKa is 8.0.

As to `O=S(=O)(O)CCN1CCOCC1` [MES, 2-[N-morpholino]ethanesulfonic acid], the pKa is reported as 6.1.

With `O=S1(=O)OC(c2ccc(O)c(Cl)c2)(c2ccc(O)c(Cl)c2)c2ccccc21` [chlorophenol red], the pKa is reported as 6.0.

For `Cc1cc(O)c(C(C)C)cc1C1(c2cc(C(C)C)c(O)cc2C)OS(=O)(=O)c2ccccc21` [thymol blue], the pKa was 9.2.

Another data set has as its system ThermoGen esterases. In words: True substrate selectivity measurements (competitive, resorufin ester), esters as substrates of the ThermoGen esterases. Type of data set: biochemical.
Settings: not given
The method, then:
Esterase solution (5 μL in 5 mM BES) was added to each well and the microplate was placed in the microplate reader, shaken for 5 s and the decrease in absorbance at 404 nm and the increase in absorbance at 574 nm were measured as often as permitted by the microplate reader, typically every 11 s. Data was collected for 20 minutes, at 25° C., in triplicate and was averaged. Activities were calculated from the equations above using the linear, initial portions of the curve.
However, it is faster to measure selectivity of each substrate as it competes against a third substrate, which we call a reference compound. The ratio of the two competitive reactions is the true selectivity. […] Since some substrates react rapidly while others react slowly, we require both fast-reacting and slow-reacting reference compounds. In some cases we replaced resorufin acetate with the slower reacting resorufin pivaloate or resorufin isobutyrate as reference compounds.
The true selectivity of the ThermoGen esterases toward different acyl chain length was determined using a competitive experiment. Resorufin esters were used as the competitive substrate as explained above and normalized the results to hexanoate =100, Table 7. The true selectivities were similar to the estimated selectivities.
On to `C=COC(=O)c1ccccc1` [Substrate 10, vinyl benzoate], for which the “quality as substrate in true selectivity measurements (in words)” value is “poor substrates”.

`C=COC(=O)C(C)(C)C` [Substrate 11, vinyl pivaloate]: the “quality as substrate in true selectivity measurements (in words)” value was “poor substrates”.

The next data set deals with ThermoGen esterases. In words: Initial screening (pH indicator): esters as substrates of the ThermoGen esterases, statements for the esterases as a group. Type of data set: biochemical. Particulars: esters 1-31, initial screening. Here is the method: (§1) Initial screening measures the initial rate of hydrolysis of different esters. The rate of reaction was measured by monitoring the release of protons using a pH indicator, 4-nitrophenol. In this assay, the yellow color of the phenoxide disappears as the reaction proceeds. The amount of ester hydrolyzed can be measured quantitatively, as is known in the art.
(§2) To survey the substrate selectivity of the ThermoGen esterases, the ability of the enzymes to hydrolyze thirty-one different commercially-available esters, Scheme 1 (FIG. 9, Table 6).
To evaluate the potential of the ThermoGen esterases for enantioselective reactions, the initial rates of hydrolysis of the esterases were measured using twenty-one pairs of enantiomers, Scheme 2, FIG. 10 and Tables 8-12. The ratio of these initial rates is an estimated enantioselectivity.
Turning to `CCOC(=O)C(F)(F)F` [Substrate 17], the “quality as substrate of the ThermoGen esterases (in words)” value is “best substrates”.

Take `COC(=O)CO` [Substrate 20]: the “quality as substrate of the ThermoGen esterases (in words)” value is “usually poor substrates”.

Turning to `COC(=O)C(O)c1ccccc1` (stereo not shown) [Substrate 21], the “quality as substrate of the ThermoGen esterases (in words)” value was “usually poor substrates”.

Turning to `CC(=O)Oc1ccccc1` [Substrate 26], the “quality as substrate of the ThermoGen esterases (in words)” value is “best substrates”.

As for `CCOC(=O)CN.Cl` [Substrate 31], the “quality as substrate of the ThermoGen esterases (in words)” value is “usually poor substrates”.

In the next data set the test system is esterase E016. In words: Initial screening of ThermoGen esterases toward esters 1-31 (pH indicator), specific activity. Particulars: 1 mM substrate, pH 7.2, 7 vol % acetonitrile, 25° C. Type of data set: biochemical. Here is the method:
as §1, §2
As for `CCOC(=O)C(F)(F)F` [Substrate 17], the “Specific activity, esterase E016” value was 1500 mmol ester hydrolyzed/min/mg protein.

With `COC(=O)CO` [Substrate 20], the “Specific activity, esterase E016” value is given as <2 mmol ester hydrolyzed/min/mg protein.

As to `COC(=O)C(O)c1ccccc1` (stereo not shown) [Substrate 21], the “Specific activity, esterase E016” value is given as <2 mmol ester hydrolyzed/min/mg protein.

For `CC(=O)Oc1ccccc1` [Substrate 26], the “Specific activity, esterase E016” value was 190 mmol ester hydrolyzed/min/mg protein.

Consider `CCOC(=O)CN.Cl` [Substrate 31], for which the “Specific activity, esterase E016” value was 13 mmol ester hydrolyzed/min/mg protein.

The next data set relates to esterase E015. The description is as above. Type of data set: biochemical. To be noted: 1 mM substrate, pH 7.2, 7 vol % acetonitrile, 25° C. The method, then:
as §1, §2
As to `CCOC(=O)C(F)(F)F` [Substrate 17], the “Specific activity, esterase E015” value was 190 mmol ester hydrolyzed/min/mg protein.

As for `COC(=O)CO` [Substrate 20], the “Specific activity, esterase E015” value was <0.1 mmol ester hydrolyzed/min/mg protein.

As for `COC(=O)C(O)c1ccccc1` (stereo not shown) [Substrate 21], the “Specific activity, esterase E015” value is <0.1 mmol ester hydrolyzed/min/mg protein.

On to `CC(=O)Oc1ccccc1` [Substrate 26], for which the “Specific activity, esterase E015” value is on record as 320 mmol ester hydrolyzed/min/mg protein.

With `CCOC(=O)CN.Cl` [Substrate 31], the “Specific activity, esterase E015” value is on record as <0.1 mmol ester hydrolyzed/min/mg protein.

The subject of another data set is esterase E020. The description is as above. The data set is classed as biochemical. Particulars: 1 mM substrate, pH 7.2, 7 vol % acetonitrile, 25° C. Here is the method:
as §1, §2
Consider `CCOC(=O)C(F)(F)F` [Substrate 17], for which the “Specific activity, esterase E020” value was 0.35 mmol ester hydrolyzed/min/mg protein.

For the compound `COC(=O)CO` [Substrate 20], the “Specific activity, esterase E020” value is <0.2 mmol ester hydrolyzed/min/mg protein.

With `COC(=O)C(O)c1ccccc1` (stereo not shown) [Substrate 21], the “Specific activity, esterase E020” value is given as <0.2 mmol ester hydrolyzed/min/mg protein.

`CC(=O)Oc1ccccc1` [Substrate 26]: the “Specific activity, esterase E020” value is on record as 390 mmol ester hydrolyzed/min/mg protein.

As for `CCOC(=O)CN.Cl` [Substrate 31], the “Specific activity, esterase E020” value is reported as 1.4 mmol ester hydrolyzed/min/mg protein.

The next data set concerns esterase E012. The description is as above. The data set is classed as biochemical. To be noted: 1 mM substrate, pH 7.2, 7 vol % acetonitrile, 25° C. Here is the method: as §1, §2
Regarding `CCOC(=O)C(F)(F)F` [Substrate 17], the “Specific activity, esterase E012” value was 1200 mmol ester hydrolyzed/min/mg protein.

For the compound `COC(=O)CO` [Substrate 20], the “Specific activity, esterase E012” value is listed as <2 mmol ester hydrolyzed/min/mg protein.

As for `COC(=O)C(O)c1ccccc1` (stereo not shown) [Substrate 21], the “Specific activity, esterase E012” value is <2 mmol ester hydrolyzed/min/mg protein.

Regarding `CC(=O)Oc1ccccc1` [Substrate 26], the “Specific activity, esterase E012” value was 30 mmol ester hydrolyzed/min/mg protein.

With `CCOC(=O)CN.Cl` [Substrate 31], the “Specific activity, esterase E012” value is 6.0 mmol ester hydrolyzed/min/mg protein.

The test system of another data set is esterase E006. The data set is described as above. Type of data set: biochemical. Particulars: 1 mM substrate, pH 7.2, 7 vol % acetonitrile, 25° C. The method, then:
as §1, §2
In the case of `CCOC(=O)C(F)(F)F` [Substrate 17], the “Specific activity, esterase E006” value is listed as 1.7 mmol ester hydrolyzed/min/mg protein.

Consider `COC(=O)CO` [Substrate 20], for which the “Specific activity, esterase E006” value is given as 0.11 mmol ester hydrolyzed/min/mg protein.

Regarding `COC(=O)C(O)c1ccccc1` (stereo not shown) [Substrate 21], the “Specific activity, esterase E006” value is <0.1 mmol ester hydrolyzed/min/mg protein.

As for `CC(=O)Oc1ccccc1` [Substrate 26], the “Specific activity, esterase E006” value is recorded as 300 mmol ester hydrolyzed/min/mg protein.

Consider `CCOC(=O)CN.Cl` [Substrate 31], for which the “Specific activity, esterase E006” value is <0.1 mmol ester hydrolyzed/min/mg protein.

Another data set deals with esterase E014. The data set is described as above. The data set is classed as biochemical. Particulars: 1 mM substrate, pH 7.2, 7 vol % acetonitrile, 25° C. Here is the method: as §1, §2
Turning to `CCOC(=O)C(F)(F)F` [Substrate 17], the “Specific activity, esterase E014” value is recorded as 1.4 mmol ester hydrolyzed/min/mg protein.

Turning to `COC(=O)CO` [Substrate 20], the “Specific activity, esterase E014” value is <0.1 mmol ester hydrolyzed/min/mg protein.

Take `COC(=O)C(O)c1ccccc1` (stereo not shown) [Substrate 21]: the “Specific activity, esterase E014” value is <0.1 mmol ester hydrolyzed/min/mg protein.

Take `CC(=O)Oc1ccccc1` [Substrate 26]: the “Specific activity, esterase E014” value is reported as 150 mmol ester hydrolyzed/min/mg protein.

As to `CCOC(=O)CN.Cl` [Substrate 31], the “Specific activity, esterase E014” value is given as <0.1 mmol ester hydrolyzed/min/mg protein.

Test system in the next data set: not listed separately
The experiment in a line: physchem.
Settings: not given
With `O=c1ccc2nc3ccc(O)cc3oc-2c1` [resorufin alcohol, resorufin], the pKa was 8.15.

A further data set deals with esterase E011. In words: Initial screening of ThermoGen esterases toward esters 1-31 (pH indicator), specific activity. Particulars: 1 mM substrate, pH 7.2, 7 vol % acetonitrile, 25° C. Type of data set: biochemical. Here is the method:
as §1
Turning to `CCOC(=O)C(F)(F)F` [Substrate 17], the “Specific activity, esterase E011” value is given as 2.7 mmol ester hydrolyzed/min/mg protein.

With `COC(=O)CO` [Substrate 20], the “Specific activity, esterase E011” value was <0.1 mmol ester hydrolyzed/min/mg protein.

As to `COC(=O)C(O)c1ccccc1` (stereo not shown) [Substrate 21], the “Specific activity, esterase E011” value is recorded as 0.04 mmol ester hydrolyzed/min/mg protein.

`CC(=O)Oc1ccccc1` [Substrate 26]: the “Specific activity, esterase E011” value is listed as 270 mmol ester hydrolyzed/min/mg protein.

In the case of `CCOC(=O)CN.Cl` [Substrate 31], the “Specific activity, esterase E011” value is 0.1 mmol ester hydrolyzed/min/mg protein.
